# Assay results taken from ChEMBL document CHEMBL5614420, “Development of peptoid-based heteroaryl-decorated histone deacetylase (HDAC) inhibitors with dual-stage antiplasmodial activity” (Eur J Med Chem, 2024).
# What was measured:
# [1] = Selectivity index, ratio of IC50 for HEK293 cells to IC50 for multidrug-resistant asexual ring-stage Plasmodium falciparum Dd2 infected in erythrocytes; conditions: human
# Plasmodium falciparum [2] = test: Antiplasmodial activity against CQ-sensitive asexual ring-stage Plasmodium falciparum 3D7 infected in erythrocytes assessed as parasitic growth inhibition measured after 72 hrs by ELISA; type: functional, organism-based; conditions: 3D7, Erythrocyte
# [3] = Cytotoxicity against HEK293 cells incubated for 24 hrs by Neutral Red Uptake assay; conditions: human
# [4] = Selectivity index, ratio of IC50 for HEK293 cells to IC50 for CQ-sensitive asexual ring-stage Plasmodium falciparum 3D7 infected in erythrocytes; conditions: human
# Plasmodium falciparum [5] = test: Resistance index, ratio of IC50 for multidrug-resistant asexual ring-stage Plasmodium falciparum Dd2 infected in erythrocytes to IC50 for CQ-sensitive asexual ring-stage Plasmodium falciparum 3D7 infected in erythrocytes; type: functional
# Plasmodium berghei [6] = test: Antiplasmodial activity against exo-erythrocytic stage Plasmodium berghei sporozoites expressing ANKA-GFPLuc-SMCON infected in human HepG2-A16-CD81 cells expressing EGFP assessed as parasitic growth inhibition by […]; type: functional, organism-based
# in vitro [7] = conditions: human, liver microsomes
# Plasmodium falciparum [8] = test: Antiplasmodial activity against multidrug-resistant asexual ring-stage Plasmodium falciparum Dd2 infected in erythrocytes assessed as parasitic growth inhibition measured after 72 hrs by ELISA; type: functional, organism-based; conditions: Dd2, Erythrocyte
# [9] = Selectivity index, ratio of IC50 for HEK293 cells to IC50 for exo-erythrocytic stage Plasmodium berghei sporozoites expressing GFP-Luc fused genes infected in human HepG2-A16-CD81 cells expressing EGFP; type: toxicity, cell-based; conditions: read-out: Ratio IC50
# in vitro [10] = conditions: human, liver microsomes; remark: listed apart in the source
# Plasmodium berghei [11] = test: Antiplasmodial activity against exo-erythrocytic stage Plasmodium berghei sporozoites expressing GFP-Luc fused genes infected in human HepG2-A16-CD81 cells expressing EGFP assessed as parasitic growth inhibition measured for 20 hrs by Bright-Glo Luciferase Assay; type: functional, organism-based; conditions: HepG2-A16-CD81, 20 h
# [12] = Cytotoxicity against human NFF cells incubated for 72 hrs by SRB assay
# Plasmodium falciparum [13] = test: Antiplasmodial activity against synchronous ring-stage Plasmodium falciparum 3D7 infected in human erythrocytes assessed as parasitic growth inhibition measured after 48 hrs by [3H]hypoxanthine incorporation assay; type: functional, organism-based; conditions: 3D7, Erythrocyte
# Plasmodium falciparum [14] = test: Antiplasmodial activity against synchronous ring-stage Plasmodium falciparum Dd2 infected in human erythrocytes assessed as parasitic growth inhibition measured after 48 hrs by [3H]hypoxanthine incorporation assay; type: functional, organism-based; conditions: Dd2, Erythrocyte
# [15] = Selectivity index, ratio of IC50 for human NFF cells to IC50 for synchronous ring-stage Plasmodium falciparum 3D7 infected in human erythrocytes
smiles,measurement,setting,value
CC(C)c1ccc(C(=O)N(CC(=O)NCc2ccccc2)Cc2ccc(C(=O)NO)cc2)cc1,selectivity ratio,[1],284
same,IC50,Plasmodium falciparum [2],63 nM
same,IC50 at 24 h,[3],69 µM
same,selectivity ratio,[4],1100
same,Ratio IC50,Plasmodium falciparum [5],4
same,IC50,Plasmodium berghei [6],16 nM
same,"microsomal CLint at 1 h, 1 µM",in vitro [7],112 µL/min/mg
same,IC50,Plasmodium falciparum [8],243 nM
same,selectivity ratio,[9],4310
same,"half-life at 1 h, 1 µM",in vitro [10],12.4 min
O=C1C(O)=C([C@H]2CC[C@H](c3ccc(Cl)cc3)CC2)C(=O)c2ccccc21 [ATOVAQUONE],IC50,Plasmodium berghei [11],< 0.051 nM
O=C(/C=C/c1cccc(S(=O)(=O)Nc2ccccc2)c1)NO [BELINOSTAT],IC50 at 72 h,[12],2370 nM
same,IC50,Plasmodium falciparum [13],60 nM
same,IC50,Plasmodium falciparum [14],130 nM
same,selectivity ratio,[15],40
CCN(CC)CCCC(C)Nc1ccnc2cc(Cl)ccc12 (configuration not stated) [CHLOROQUINE],IC50 at 24 h,[3],265 µM
Cc1[nH]c2ccccc2c1CCNCc1ccc(/C=C/C(=O)NO)cc1 [PANOBINOSTAT],IC50 at 72 h,[12],70 nM
same,IC50,Plasmodium falciparum [13],10 nM
same,IC50,Plasmodium falciparum [14],30 nM
same,selectivity ratio,[15],7
C/C=C1\NC(=O)[C@H]2CSSCC/C=C/[C@H](CC(=O)N[C@H](C(C)C)C(=O)N2)OC(=O)[C@H](C(C)C)NC1=O [ROMIDEPSIN],IC50 at 72 h,[12],1 nM
same,selectivity ratio,[15],< 1
